# In article PMC10879502, “Linking ATP and allosteric sites to achieve superadditive binding with bivalent EGFR kinase inhibitors” (Communications Chemistry, 2024):
# Key:
# [1] = target: PIM1 (Homo sapiens, UniProt P11309); assay: KINOMEscan; format: binding; conditions: 1 μM
# [2] = target: PRKCH (Homo sapiens, UniProt P24723); assay: KINOMEscan; format: binding; conditions: 1 μM
# [3] = target: T1, GAK (Homo sapiens, UniProt O14976); assay: KINOMEscan; format: binding; conditions: 1 μM
# T1 construct: purchased Eurofins DiscoverX Corporation
# [4] = target: PIK3CA(Q546K) (Homo sapiens, UniProt P42336, Q546K); assay: KINOMEscan; format: binding; conditions: 1 μM
# [5] = target: CDK7 (Homo sapiens, UniProt P50613); assay: KINOMEscan; format: binding; conditions: 1 μM
# [6] = target: T2, CSNK1E (Homo sapiens, UniProt P49674); assay: KINOMEscan; format: binding; conditions: 1 μM
# T2 construct: purchased Eurofins DiscoverX Corporation
# [7] = target: PHKG2 (Homo sapiens, UniProt P15735); assay: KINOMEscan; format: binding; conditions: 1 μM
# [8] = target: ACVRL1 (Homo sapiens, UniProt P37023); assay: KINOMEscan; format: binding; conditions: 1 μM
# [9] = target: ERN1 (Homo sapiens, UniProt O75460); assay: KINOMEscan; format: binding; conditions: 1 μM
# [10] = tested on: EGFR(L747-T751del+Sins); assay: KINOMEscan; format: binding; conditions: 1 μM
# [11] = target: T3, GSK3A (Homo sapiens, UniProt P49840); assay: KINOMEscan; format: binding; conditions: 1 μM
# T3 construct: purchased Eurofins DiscoverX Corporation
# [12] = target: T4, CSNK1G3 (Homo sapiens, UniProt Q9Y6M4); assay: KINOMEscan; format: binding; conditions: 1 μM
# T4 construct: purchased Eurofins DiscoverX Corporation
# [13] = target: T5, MYO3A (Homo sapiens, UniProt Q8NEV4); assay: KINOMEscan; format: binding; conditions: 1 μM
# T5 construct: purchased Eurofins DiscoverX Corporation
# [14] = target: RSK4(Kin.Dom.2-C-terminal) (Homo sapiens, UniProt Q9UK32); assay: KINOMEscan; format: binding; conditions: 1 μM
# [15] = target: T6, FLT3(N841I) (Homo sapiens, UniProt P36888, N841I); assay: KINOMEscan; format: binding; conditions: 1 μM
# T6 construct: purchased Eurofins DiscoverX Corporation
# [16] = target: EGFR(L858R) (Homo sapiens, UniProt P00533, L858R); assay: KINOMEscan; format: binding; conditions: 1 μM
# [17] = target: T7, TNIK (Homo sapiens, UniProt Q9UKE5); assay: KINOMEscan; format: binding; conditions: 1 μM
# T7 construct: purchased Eurofins DiscoverX Corporation
# [18] = target: T8, NEK5 (Homo sapiens, UniProt Q6P3R8); assay: KINOMEscan; format: binding; conditions: 1 μM
# T8 construct: purchased Eurofins DiscoverX Corporation
# [19] = target: T9, CAMK2B (Homo sapiens, UniProt Q13554); assay: KINOMEscan; format: binding; conditions: 1 μM
# T9 construct: purchased Eurofins DiscoverX Corporation (KINOMEscan)
# [20] = target: T10, HPK1 (Homo sapiens, UniProt Q92918); assay: KINOMEscan; format: binding; conditions: 1 μM
# T10 construct: purchased Eurofins DiscoverX (KINOMEscan)
# [21] = target: T11, MARK1 (Homo sapiens, UniProt Q9P0L2); assay: KINOMEscan; format: binding; conditions: 1 μM
# T11 construct: purchased Eurofins DiscoverX Corporation
# [22] = Metabolic stability in human liver microsomes; format: in vitro ADME; conditions: up to 120 min
# Procedure: Pooled liver microsomes from humans (male) were purchased from Sekisui XenoTech, LLC, Kansas City, KS, USA. Metabolic stability assays were performed in the presence of an NADPH-regenerating system consisting of 5 mM glucose-6-phosphate, 5 U/mL glucose-6-phosphate dehydrogenase, and 1 mM NADP^+. Liver microsomes (20 mg/mL), NADPH-regenerating system, and 4 mM MgCl2·6 H2O in 0.1 M TRIS-HCl-buffer (pH 7.4) were preincubated for 5 min at 37 °C and 750 rpm on a shaker. The reaction was started by adding the preheated compound at 10 mM resulting in a final concentration of 0.1 mM. The reaction was quenched at selected time points (0, 10, 20, 30, 60, and 120 min) by pipetting 100 μL of internal standard (ketoprofen) at a concentration of 150 μM in acetonitrile. The samples were vortexed for 30 s and centrifuged (21910 relative centrifugal force, 4 °C, 20 min). The supernatant was used directly for LC-MS analysis. All compound incubations were conducted at least in triplicates. Additionally, a negative control containing BSA (20 mg/mL) instead of liver microsomes and a positive control using verapamil instead of compound were performed. A limit of 1% organic solvent during incubation was not exceeded. […]
# [23] = target: T12, MLK3 (Homo sapiens, UniProt Q16584); assay: KINOMEscan; format: binding; conditions: 1 μM
# T12 construct: purchased Eurofins DiscoverX Corporation
# [24] = target: PIK3CD (Homo sapiens, UniProt O00329); assay: KINOMEscan; format: binding; conditions: 1 μM
# [25] = target: T13, CASK (Homo sapiens, UniProt O14936); assay: KINOMEscan; format: binding; conditions: 1 μM
# T13 construct: purchased Eurofins DiscoverX Corporation (KINOMEscan)
# [26] = target: T14, HIPK2 (Homo sapiens, UniProt Q9H2X6); assay: KINOMEscan; format: binding; conditions: 1 μM
# T14 construct: purchased Eurofins DiscoverX Corporation
# [27] = target: RIPK5 (Homo sapiens, UniProt Q6XUX3); assay: KINOMEscan; format: binding; conditions: 1 μM
# [28] = target: T15, MRCKA (Homo sapiens, UniProt Q5VT25); assay: KINOMEscan; format: binding; conditions: 1 μM
# T15 construct: purchased Eurofins DiscoverX Corporation
# Sequence of CDK7 (P50613 whole entry): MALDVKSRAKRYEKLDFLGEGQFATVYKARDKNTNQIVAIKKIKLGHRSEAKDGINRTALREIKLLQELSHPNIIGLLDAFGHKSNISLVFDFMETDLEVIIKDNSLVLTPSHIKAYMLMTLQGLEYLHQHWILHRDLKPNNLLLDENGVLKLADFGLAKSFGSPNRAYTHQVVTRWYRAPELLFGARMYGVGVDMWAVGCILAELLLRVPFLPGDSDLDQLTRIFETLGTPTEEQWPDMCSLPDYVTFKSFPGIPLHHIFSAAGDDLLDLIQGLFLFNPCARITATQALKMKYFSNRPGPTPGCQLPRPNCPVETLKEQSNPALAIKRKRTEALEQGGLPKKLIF
# T7 sequence (Q9UKE5 whole entry): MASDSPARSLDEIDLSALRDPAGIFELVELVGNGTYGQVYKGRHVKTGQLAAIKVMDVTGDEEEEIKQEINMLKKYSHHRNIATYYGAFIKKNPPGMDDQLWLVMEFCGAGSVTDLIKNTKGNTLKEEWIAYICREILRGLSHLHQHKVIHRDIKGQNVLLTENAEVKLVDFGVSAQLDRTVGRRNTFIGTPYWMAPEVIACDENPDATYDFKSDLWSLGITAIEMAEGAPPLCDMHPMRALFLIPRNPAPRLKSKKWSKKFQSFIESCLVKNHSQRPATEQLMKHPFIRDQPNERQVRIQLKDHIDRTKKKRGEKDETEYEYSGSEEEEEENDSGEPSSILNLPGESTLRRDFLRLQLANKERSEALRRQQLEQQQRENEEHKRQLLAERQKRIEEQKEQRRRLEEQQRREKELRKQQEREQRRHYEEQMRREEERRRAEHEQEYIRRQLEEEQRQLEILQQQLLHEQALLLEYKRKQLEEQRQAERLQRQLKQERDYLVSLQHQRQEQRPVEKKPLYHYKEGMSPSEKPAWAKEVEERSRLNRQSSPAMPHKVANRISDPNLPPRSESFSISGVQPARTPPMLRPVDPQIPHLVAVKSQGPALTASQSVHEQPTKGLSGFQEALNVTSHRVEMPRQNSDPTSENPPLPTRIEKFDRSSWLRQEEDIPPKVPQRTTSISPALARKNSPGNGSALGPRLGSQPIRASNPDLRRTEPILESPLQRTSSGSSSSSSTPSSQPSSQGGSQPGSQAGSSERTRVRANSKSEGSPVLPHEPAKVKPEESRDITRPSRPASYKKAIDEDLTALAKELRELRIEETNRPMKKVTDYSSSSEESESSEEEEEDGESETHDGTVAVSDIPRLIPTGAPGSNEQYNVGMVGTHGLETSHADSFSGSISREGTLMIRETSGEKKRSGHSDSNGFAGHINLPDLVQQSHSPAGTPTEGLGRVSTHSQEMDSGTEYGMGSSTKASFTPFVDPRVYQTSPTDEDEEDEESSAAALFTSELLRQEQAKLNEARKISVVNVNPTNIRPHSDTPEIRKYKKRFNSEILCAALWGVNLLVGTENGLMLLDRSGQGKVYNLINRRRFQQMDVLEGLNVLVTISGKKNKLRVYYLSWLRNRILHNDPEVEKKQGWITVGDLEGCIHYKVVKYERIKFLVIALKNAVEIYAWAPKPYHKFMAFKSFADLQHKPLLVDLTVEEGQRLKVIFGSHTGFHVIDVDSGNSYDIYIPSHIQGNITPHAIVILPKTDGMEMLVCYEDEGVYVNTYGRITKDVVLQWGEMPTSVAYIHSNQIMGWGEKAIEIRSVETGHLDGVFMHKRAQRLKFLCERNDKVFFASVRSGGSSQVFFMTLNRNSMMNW
# T8 sequence (Q6P3R8 whole entry): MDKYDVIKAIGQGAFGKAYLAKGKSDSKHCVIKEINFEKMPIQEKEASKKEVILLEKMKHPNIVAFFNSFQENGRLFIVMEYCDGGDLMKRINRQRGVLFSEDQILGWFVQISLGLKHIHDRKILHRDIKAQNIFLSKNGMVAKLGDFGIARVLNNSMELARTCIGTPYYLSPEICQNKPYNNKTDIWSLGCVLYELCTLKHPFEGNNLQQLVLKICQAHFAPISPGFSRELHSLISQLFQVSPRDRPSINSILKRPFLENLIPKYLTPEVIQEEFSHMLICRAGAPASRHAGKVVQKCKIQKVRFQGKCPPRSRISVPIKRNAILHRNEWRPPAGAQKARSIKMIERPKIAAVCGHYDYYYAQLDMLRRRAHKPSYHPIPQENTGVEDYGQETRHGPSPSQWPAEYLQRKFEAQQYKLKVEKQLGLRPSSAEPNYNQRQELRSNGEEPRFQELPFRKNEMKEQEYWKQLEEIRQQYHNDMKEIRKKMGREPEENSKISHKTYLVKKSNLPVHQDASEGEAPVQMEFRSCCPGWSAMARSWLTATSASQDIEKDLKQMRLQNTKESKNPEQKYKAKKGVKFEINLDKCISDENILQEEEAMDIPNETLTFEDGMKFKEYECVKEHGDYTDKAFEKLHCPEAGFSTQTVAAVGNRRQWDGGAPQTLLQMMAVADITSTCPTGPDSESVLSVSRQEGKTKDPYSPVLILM
# Sequence of RSK4(Kin.Dom.2-C-terminal) (Q9UK32 426-683 limits assumed): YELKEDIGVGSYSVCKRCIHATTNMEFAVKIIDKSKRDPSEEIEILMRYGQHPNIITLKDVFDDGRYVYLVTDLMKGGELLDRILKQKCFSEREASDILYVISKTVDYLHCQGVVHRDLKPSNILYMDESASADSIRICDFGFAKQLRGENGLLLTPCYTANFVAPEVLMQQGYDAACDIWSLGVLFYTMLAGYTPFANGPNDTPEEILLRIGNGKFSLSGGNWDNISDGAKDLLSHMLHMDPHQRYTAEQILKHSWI
# Sequence of ACVRL1 (P37023 22-503): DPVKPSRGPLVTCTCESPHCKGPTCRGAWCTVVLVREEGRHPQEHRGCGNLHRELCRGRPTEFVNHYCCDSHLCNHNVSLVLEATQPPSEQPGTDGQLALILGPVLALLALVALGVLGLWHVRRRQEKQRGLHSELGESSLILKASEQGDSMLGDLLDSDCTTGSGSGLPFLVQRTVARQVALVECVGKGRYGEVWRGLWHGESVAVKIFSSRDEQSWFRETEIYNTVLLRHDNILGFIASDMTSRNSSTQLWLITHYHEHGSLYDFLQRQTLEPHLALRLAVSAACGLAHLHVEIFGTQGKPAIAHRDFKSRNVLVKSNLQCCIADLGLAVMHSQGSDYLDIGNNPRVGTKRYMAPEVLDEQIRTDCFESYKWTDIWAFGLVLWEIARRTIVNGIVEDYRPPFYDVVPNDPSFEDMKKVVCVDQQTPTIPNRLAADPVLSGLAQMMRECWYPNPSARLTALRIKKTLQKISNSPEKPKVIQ
# T3 sequence (P49840 whole entry): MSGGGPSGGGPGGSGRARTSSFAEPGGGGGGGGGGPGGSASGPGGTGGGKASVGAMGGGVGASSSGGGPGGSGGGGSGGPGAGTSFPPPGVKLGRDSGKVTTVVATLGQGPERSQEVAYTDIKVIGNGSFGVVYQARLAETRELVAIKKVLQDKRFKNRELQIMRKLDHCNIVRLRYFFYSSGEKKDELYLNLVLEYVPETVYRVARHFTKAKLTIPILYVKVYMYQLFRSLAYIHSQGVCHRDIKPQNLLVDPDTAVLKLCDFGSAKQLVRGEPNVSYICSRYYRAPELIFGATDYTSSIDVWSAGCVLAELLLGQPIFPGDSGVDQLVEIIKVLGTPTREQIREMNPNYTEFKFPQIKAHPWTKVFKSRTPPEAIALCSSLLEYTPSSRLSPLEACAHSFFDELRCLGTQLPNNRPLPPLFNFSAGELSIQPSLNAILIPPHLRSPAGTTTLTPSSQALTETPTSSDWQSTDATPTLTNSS
# Sequence of RIPK5 (Q6XUX3 whole entry): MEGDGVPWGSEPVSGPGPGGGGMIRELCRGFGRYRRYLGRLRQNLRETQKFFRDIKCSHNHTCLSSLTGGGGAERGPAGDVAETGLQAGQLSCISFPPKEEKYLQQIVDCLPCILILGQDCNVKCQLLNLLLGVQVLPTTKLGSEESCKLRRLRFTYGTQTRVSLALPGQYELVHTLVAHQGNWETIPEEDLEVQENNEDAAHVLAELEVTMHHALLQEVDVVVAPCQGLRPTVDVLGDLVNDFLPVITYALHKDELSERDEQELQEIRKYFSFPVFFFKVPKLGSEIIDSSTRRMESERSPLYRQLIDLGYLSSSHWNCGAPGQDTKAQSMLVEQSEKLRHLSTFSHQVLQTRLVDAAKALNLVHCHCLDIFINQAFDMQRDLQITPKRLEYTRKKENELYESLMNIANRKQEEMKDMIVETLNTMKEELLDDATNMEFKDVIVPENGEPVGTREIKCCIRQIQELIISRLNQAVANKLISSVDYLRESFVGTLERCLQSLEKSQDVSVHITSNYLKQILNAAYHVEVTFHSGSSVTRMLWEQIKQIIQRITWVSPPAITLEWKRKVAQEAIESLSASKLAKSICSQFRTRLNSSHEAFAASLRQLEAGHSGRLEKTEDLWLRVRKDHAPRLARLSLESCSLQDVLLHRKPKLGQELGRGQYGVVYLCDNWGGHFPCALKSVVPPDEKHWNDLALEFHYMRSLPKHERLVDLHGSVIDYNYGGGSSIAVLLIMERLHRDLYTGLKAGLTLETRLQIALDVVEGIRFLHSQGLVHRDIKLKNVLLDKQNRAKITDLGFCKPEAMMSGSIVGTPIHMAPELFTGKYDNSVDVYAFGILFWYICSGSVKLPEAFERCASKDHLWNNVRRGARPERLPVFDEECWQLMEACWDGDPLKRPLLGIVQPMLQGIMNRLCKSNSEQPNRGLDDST
# T2 sequence (P49674 whole entry): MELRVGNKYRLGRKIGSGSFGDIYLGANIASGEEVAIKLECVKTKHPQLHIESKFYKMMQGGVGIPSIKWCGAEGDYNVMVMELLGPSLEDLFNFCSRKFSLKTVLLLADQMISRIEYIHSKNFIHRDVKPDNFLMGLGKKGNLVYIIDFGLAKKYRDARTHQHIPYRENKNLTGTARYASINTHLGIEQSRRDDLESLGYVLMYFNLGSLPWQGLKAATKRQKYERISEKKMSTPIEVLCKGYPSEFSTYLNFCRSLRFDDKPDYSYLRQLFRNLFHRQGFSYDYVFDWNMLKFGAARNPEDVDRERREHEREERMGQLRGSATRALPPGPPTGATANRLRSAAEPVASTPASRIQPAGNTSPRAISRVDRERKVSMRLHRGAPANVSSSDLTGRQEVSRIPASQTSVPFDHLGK
compound,measurement,setting,value
C=CC(=O)Nc1ccc(OC)c(Nc2cc(-c3[nH]c(CC)nc3-c3cccc(NC(=O)c4cccc5c4NC(=O)c4ccccc4N5)c3)ccn2)c1 [Compound 4],POC,[1],94% of control
same,POC,[2],69% of control
same,POC,[3],16% of control
same,POC,[4],100% of control
same,POC,[5],49% of control
same,POC,[6],88% of control
same,POC,[7],73% of control
same,POC,[8],75% of control
same,POC,[9],74% of control
same,POC,[10],7.6% of control
same,POC,[11],65% of control
same,POC,[12],98% of control
same,POC,[13],14% of control
same,POC,[14],80% of control
same,POC,[15],97% of control
same,POC,[16],5% of control
same,POC,[17],33% of control
same,POC,[18],100% of control
same,POC,[19],72% of control
same,POC,[20],45% of control
same,POC,[21],92% of control
same,metabolic stability in liver microsomes,[22],metabolically stable
same,POC,[23],97% of control
same,POC,[24],71% of control
same,POC,[25],97% of control
same,POC,[26],100% of control
same,POC,[27],79% of control
same,POC,[28],0% of control
